Experimental data published in EP0940081A1, “Combinations of active agents and disinfectants, preservatives and antiseptics containing same” (Bode Chemie GmbH & Co., priority 1998, dated 1999).
Read-outs that look alike come from different tables or passages of the source.

Tests used:
[1] = tested on: Staphylococcus aureus; test: Agar diffusion test, inhibition zone; format: cell-based; conditions: 24 h
Protocol: Methodik: Decylthiouroniumbromid wurde in abgestuften Konzentrationen im Agar inkorporiert. In Stanzlöcher wurde eine Natriumperboratlösung ohne und mit Aktivierung pipettiert. Die Platten wurden mit Staphylococcus aureus beimpft und 24 h bebrütet. Der entstehende Hemmhof wurde gemessen.

[2] = Cytotoxicity, cell count of monolayer culture after 24 h exposure; format: cell-based, human; conditions: human, fl amnion cells, 24 h, read-out: Median der Zellzahl
Protocol: Methodik: Die Zytotoxizität wird an der FL-Linie (menschliche Amnionzellen) geprüft. 2-3 Tage nach der Zelleinsaat werden die Zellen, nachdem sie als einschichtige Zellkultur (Monolayer) vorliegen, nach Medienwechsel für 24 h mit der Prüfsubstanz exponiert, danach abgelöst und die Zellzahl in % zur Kontrolle mit dem Zellzähler Universal 87001 (mölab, Hilden) ermittelt.

Row | SMILES | Hemmhofgröße ([1]; combination: 0,0009% Decylthiouroniumbromid im Agar with Perborat 0,5% im Stanzloch, Aktivator ja) | Hemmhofgröße ([1]; combination: 0,0019% Decylthiouroniumbromid im Agar with Perborat 0,5% im Stanzloch, Aktivator ja) | viability at 24 h ([2]; Prüfkonzentration 0,0001 %) | viability at 24 h ([2]; Prüfkonzentration 0,005 %) | Hemmhofgröße ([1]; Perboratkonzentration im Stanzloch 0,5%, Aktivator ja, no Decylthiouroniumbromid im Agar) | Hemmhofgröße ([1]; Perboratkonzentration im Stanzloch 0,5%, Aktivator nein, no Decylthiouroniumbromid im Agar) | Hemmhofgröße ([1]; Perboratkonzentration im Stanzloch 0,25%, Aktivator ja, no Decylthiouroniumbromid im Agar) | Hemmhofgröße ([1]; Perboratkonzentration im Stanzloch 0,25%, Aktivator nein, no Decylthiouroniumbromid im Agar) | Hemmhofgröße ([1]; Perboratkonzentration im Stanzloch 1%, Aktivator ja, no Decylthiouroniumbromid im Agar) | Hemmhofgröße ([1]; Perboratkonzentration im Stanzloch 1%, Aktivator nein, no Decylthiouroniumbromid im Agar) | Hemmhofgröße ([1]; Perboratkonzentration im Stanzloch 2%, Aktivator ja, no Decylthiouroniumbromid im Agar) | Hemmhofgröße ([1]; Perboratkonzentration im Stanzloch 2%, Aktivator nein, no Decylthiouroniumbromid im Agar)
1 | CCCCCCCCCCSC(=N)N [Decylthiouroniumbromid] | 19 mm | 24 mm | 96.8% | 33.5% | – | – | – | – | – | – | – | –
2 | O=BO[O-].[Na+] [Perborat, Natriumperborat] | – | – | – | – | 13 mm | 0 mm | 0 mm | 0 mm | 15 mm | 11 mm | 19 mm | 13 mm
